Our source for the Activity values is ChEMBL document CHEMBL1743201, “Casarett and Doull's Toxicology The Basic Science of Poisons, 7th edition” (2008).

Common to all, as to format: ADME
One series deals with T1, Cytochrome P450 2C8 (Homo sapiens, UniProt P10632).
T1 sequence (P10632 whole entry): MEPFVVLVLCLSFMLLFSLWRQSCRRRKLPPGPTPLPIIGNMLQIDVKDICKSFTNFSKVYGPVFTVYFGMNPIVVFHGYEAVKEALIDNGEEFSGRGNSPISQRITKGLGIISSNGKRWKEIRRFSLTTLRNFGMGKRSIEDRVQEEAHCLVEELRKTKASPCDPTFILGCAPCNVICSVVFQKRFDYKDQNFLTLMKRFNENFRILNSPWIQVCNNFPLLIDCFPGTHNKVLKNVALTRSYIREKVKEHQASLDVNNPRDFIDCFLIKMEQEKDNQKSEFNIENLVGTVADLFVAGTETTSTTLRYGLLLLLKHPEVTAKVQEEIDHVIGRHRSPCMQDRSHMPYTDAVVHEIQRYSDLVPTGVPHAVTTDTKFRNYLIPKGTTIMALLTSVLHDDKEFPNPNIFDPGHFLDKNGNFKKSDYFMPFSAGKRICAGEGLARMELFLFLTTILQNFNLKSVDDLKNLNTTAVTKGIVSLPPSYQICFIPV
The series can be described thus: Clinically relevant inhibitors of human liver microsomal P450 enzymes, isoform CYP2C8. Conditions: microsomes. (In general: Liver microsomes are vesicles of endoplasmic reticulum, rich in cytochrome P450 enzymes.)

Another series deals with T2, Cytochrome P450 2B6 (Homo sapiens, UniProt P20813).
T2 sequence (P20813 whole entry): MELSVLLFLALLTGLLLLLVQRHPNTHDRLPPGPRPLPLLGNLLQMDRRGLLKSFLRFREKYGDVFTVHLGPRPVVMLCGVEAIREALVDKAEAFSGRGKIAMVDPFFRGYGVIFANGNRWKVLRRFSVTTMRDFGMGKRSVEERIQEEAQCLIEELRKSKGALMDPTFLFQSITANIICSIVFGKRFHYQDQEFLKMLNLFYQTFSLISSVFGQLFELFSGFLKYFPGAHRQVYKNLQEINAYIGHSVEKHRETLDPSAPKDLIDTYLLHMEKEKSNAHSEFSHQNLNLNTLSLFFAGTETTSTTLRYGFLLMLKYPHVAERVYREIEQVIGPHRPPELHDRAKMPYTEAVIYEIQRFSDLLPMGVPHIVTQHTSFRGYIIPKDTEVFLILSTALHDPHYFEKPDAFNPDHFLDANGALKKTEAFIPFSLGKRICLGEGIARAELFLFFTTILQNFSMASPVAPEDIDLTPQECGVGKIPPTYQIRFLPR
The series can be described thus: Clinically relevant substrates of human liver microsomal P450 enzymes, isoform CYP2B6. The conditions noted are these: microsomes.

The target of another series is Sulfotransferase 1A1 (Homo sapiens, UniProt P50225). The series can be described thus: Major substrate of human cytosolic sulfotransferase SULT1A1.
The target of series [1] is T3, UDP-glucuronosyltransferase 1A10 (Homo sapiens, UniProt Q9HAW8).
T3 sequence (Q9HAW8 whole entry): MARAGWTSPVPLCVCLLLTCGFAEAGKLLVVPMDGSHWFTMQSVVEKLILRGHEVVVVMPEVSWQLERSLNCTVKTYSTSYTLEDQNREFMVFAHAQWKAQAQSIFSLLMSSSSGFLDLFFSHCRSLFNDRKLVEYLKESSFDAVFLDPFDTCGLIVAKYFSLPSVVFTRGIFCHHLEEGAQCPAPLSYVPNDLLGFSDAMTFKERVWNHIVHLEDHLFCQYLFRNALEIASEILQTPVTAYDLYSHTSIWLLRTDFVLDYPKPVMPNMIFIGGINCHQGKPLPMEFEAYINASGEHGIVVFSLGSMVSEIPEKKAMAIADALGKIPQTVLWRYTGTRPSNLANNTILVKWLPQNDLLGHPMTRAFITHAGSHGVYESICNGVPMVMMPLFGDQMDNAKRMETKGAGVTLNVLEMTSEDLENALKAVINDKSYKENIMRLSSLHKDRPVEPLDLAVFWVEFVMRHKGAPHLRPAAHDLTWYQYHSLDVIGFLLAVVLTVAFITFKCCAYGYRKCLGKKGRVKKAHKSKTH
The series can be described thus: Substrate of human UDP-glucuronosyltransferase UGT1A10.

Series [2] has as its target T4, UDP-glucuronosyltransferase 1A8 (Homo sapiens, UniProt Q9HAW9).
T4 sequence (Q9HAW9 whole entry): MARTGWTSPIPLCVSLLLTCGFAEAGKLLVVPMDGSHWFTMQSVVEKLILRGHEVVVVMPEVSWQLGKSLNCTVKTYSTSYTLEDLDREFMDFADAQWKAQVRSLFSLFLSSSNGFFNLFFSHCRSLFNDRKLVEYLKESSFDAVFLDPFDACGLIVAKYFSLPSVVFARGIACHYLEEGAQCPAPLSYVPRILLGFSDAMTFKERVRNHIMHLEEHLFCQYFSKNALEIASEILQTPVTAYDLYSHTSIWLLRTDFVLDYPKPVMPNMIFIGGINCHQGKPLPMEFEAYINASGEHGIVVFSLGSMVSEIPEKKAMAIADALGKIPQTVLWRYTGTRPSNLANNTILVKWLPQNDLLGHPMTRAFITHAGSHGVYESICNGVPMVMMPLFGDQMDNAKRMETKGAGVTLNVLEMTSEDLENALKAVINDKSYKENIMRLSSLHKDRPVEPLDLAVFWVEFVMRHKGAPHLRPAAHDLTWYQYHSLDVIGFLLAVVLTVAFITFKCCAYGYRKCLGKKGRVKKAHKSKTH
The series can be described thus: Substrate of human UDP-glucuronosyltransferase UGT1A8.

The next series concerns the target T5, Sulfotransferase 4A1 (Homo sapiens, UniProt Q9BR01).
T5 sequence (Q9BR01 whole entry): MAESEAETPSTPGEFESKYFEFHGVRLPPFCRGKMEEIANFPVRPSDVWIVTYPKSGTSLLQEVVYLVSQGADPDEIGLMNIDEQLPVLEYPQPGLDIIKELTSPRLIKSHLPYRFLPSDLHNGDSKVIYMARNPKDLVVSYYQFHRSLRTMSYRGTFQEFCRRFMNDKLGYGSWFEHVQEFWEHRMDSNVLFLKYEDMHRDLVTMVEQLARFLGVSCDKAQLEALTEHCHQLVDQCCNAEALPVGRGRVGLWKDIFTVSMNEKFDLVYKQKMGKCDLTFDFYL
The series can be described thus: Major substrate of human cytosolic sulfotransferase SULT4A1_v1.

For series [3], the target named is T6, UDP-glucuronosyltransferase 1A1 (Homo sapiens, UniProt P22309).
T6 sequence (P22309 whole entry): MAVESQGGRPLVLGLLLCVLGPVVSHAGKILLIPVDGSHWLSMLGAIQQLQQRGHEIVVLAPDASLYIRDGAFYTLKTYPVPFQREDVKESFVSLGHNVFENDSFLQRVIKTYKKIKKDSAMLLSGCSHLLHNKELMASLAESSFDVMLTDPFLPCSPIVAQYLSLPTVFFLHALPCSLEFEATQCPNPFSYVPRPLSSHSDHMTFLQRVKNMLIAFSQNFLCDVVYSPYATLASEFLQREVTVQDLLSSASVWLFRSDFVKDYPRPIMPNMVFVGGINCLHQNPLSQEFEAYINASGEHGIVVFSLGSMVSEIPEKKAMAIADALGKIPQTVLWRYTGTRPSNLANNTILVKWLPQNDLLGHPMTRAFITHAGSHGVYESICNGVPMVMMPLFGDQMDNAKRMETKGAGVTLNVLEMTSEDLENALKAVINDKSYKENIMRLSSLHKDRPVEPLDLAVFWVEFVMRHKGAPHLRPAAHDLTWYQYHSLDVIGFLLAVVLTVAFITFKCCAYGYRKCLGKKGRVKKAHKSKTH
The series can be described thus: Substrate of human UDP-glucuronosyltransferase UGT1A1.

The target of the next series is Sulfotransferase 1B1 (Homo sapiens, UniProt O43704). The series can be described thus: Major substrate of human cytosolic sulfotransferase SULT1B1.
The target of another series is T7, Sulfotransferase 2A1 (Homo sapiens, UniProt Q06520).
T7 sequence (Q06520 whole entry): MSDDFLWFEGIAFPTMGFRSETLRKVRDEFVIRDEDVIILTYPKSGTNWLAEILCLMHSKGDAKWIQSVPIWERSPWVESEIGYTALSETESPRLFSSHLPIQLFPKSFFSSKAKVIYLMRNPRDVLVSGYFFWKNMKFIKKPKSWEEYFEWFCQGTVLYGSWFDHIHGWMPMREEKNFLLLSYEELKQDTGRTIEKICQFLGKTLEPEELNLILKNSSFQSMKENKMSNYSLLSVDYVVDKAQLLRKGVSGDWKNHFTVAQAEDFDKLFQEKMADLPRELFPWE
The series can be described thus: Major substrate of human cytosolic sulfotransferase SULT2A1.

The target in a further series is T8, Sulfotransferase 1E1 (Homo sapiens, UniProt P49888).
T8 sequence (P49888 whole entry): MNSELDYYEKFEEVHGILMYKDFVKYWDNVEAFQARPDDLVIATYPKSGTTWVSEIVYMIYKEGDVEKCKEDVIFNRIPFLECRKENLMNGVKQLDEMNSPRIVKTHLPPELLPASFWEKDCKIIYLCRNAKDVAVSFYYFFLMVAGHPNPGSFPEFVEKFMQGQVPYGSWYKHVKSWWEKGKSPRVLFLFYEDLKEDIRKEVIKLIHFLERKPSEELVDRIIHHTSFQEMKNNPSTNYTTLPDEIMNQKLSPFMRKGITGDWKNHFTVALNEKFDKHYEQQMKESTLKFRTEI
The series can be described thus: Major substrate of human cytosolic sulfotransferase SULT1E1.

The target in another series is Sulfotransferase 1C4 (Homo sapiens, UniProt O75897). The series can be described thus: Major substrate of human cytosolic sulfotransferase SULT1C4.
For a further series, the target named is Sulfotransferase 1A3 (Homo sapiens, UniProt P0DMM9). The series can be described thus: Major substrate of human cytosolic sulfotransferase SULT1A3.
Sequence of Sulfotransferase 1A3 (P0DMM9 whole entry): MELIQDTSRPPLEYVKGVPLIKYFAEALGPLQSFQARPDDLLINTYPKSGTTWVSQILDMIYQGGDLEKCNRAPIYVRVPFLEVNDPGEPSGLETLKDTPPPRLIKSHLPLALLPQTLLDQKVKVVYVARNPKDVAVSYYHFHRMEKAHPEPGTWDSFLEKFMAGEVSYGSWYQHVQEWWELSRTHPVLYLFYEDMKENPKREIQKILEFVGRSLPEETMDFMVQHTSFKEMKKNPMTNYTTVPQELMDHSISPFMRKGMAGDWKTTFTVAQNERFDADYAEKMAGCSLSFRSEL

Sequence of Sulfotransferase 1A1 (P50225 whole entry): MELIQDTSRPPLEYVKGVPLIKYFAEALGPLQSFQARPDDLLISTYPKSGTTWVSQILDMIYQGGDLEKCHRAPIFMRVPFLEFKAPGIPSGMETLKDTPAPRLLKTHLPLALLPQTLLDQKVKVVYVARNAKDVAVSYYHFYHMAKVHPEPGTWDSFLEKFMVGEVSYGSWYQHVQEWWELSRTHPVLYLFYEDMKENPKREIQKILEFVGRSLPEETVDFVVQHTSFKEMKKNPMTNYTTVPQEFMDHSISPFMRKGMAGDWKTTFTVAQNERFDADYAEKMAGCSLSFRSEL
Sequence of Sulfotransferase 1B1 (O43704 whole entry): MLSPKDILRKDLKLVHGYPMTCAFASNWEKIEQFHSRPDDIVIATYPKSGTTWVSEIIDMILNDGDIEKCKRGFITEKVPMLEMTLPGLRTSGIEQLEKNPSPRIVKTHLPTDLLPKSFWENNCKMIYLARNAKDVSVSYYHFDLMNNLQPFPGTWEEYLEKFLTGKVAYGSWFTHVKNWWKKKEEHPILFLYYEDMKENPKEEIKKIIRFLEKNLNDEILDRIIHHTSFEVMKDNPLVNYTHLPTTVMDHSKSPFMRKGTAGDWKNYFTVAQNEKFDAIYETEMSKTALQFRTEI
Sequence of Sulfotransferase 1C4 (O75897 whole entry): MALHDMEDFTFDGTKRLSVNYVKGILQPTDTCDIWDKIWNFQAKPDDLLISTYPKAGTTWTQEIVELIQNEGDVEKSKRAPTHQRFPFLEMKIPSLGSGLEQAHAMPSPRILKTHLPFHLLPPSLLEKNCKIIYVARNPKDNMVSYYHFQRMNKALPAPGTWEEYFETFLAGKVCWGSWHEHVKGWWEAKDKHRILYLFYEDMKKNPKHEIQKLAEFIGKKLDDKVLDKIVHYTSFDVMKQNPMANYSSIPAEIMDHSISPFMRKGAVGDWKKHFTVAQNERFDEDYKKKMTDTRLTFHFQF

As to `CC(C)c1nc(N(C)S(C)(=O)=O)nc(-c2ccc(F)cc2)c1/C=C/[C@@H](O)C[C@@H](O)CC(=O)O` [ROSUVASTATIN], on Cytochrome P450 2C8, the Activity entry is listed as “Inhibitor”. On to `CNC1(c2ccccc2Cl)CCCCC1=O` (stereo not drawn) [KETAMINE], for which the Activity entry at Cytochrome P450 2B6 is on record as “Substrate”. In the case of `Cc1c(C)c2c(c(C)c1O)CCC(C)(COc1ccc(CC3SC(=O)NC3=O)cc1)O2` (stereo not drawn) [TROGLITAZONE], the Activity entry (on Sulfotransferase 1A1; in [1]; in series [2]) was “Substrate” throughout. In the case of `N[C@@H](Cc1cc(I)c(Oc2cc(I)c(O)c(I)c2)c(I)c1)C(=O)O` [LEVOTHYROXINE], the Activity entry (on Sulfotransferase 4A1; in series [3]; at Sulfotransferase 1B1) was “Substrate” throughout. Turning to `CC[C@@]1(c2ccccc2)NC(=O)N(C)C1=O`, the Activity result on Cytochrome P450 2B6 was “Substrate”. On to `C[C@]12CC[C@@H]3c4ccc(O)cc4CC[C@H]3[C@@H]1CCC2=O` [ESTRONE], for which the Activity entry at Sulfotransferase 4A1, at Sulfotransferase 2A1, on Sulfotransferase 1E1 and at Sulfotransferase 1C4 was “Substrate” in each case. For the compound `CC#C[C@]1(O)CC[C@H]2[C@@H]3CCc4cc(O)ccc4[C@H]3CC[C@@]21C` [ESTROGEN], in [1], the Activity result is recorded as “Substrate”. With `Cc1ccnc2c1NC(=O)c1cccnc1N2C1CC1` [NEVIRAPINE], the Activity entry on Cytochrome P450 2B6 was “Substrate”. Take `CCOC(=O)C1(c2ccccc2)CCN(C)CC1` [MEPERIDINE]: the Activity result on Cytochrome P450 2B6 was “Substrate”. As to `NC[C@H](O)c1ccc(O)c(O)c1` [NOREPINEPHRINE], on Sulfotransferase 1A3, the Activity result is “Substrate”. `OCc1ccc2ccc3cccc4ccc1c2c34`: the Activity entry on Sulfotransferase 2A1, at Sulfotransferase 1C4 and on Sulfotransferase 1A3 was “Substrate” throughout. Consider `CCc1ccc(CCOc2ccc(CC3SC(=O)NC3=O)cc2)nc1` (stereo not drawn) [PIOGLITAZONE], for which the Activity entry at Cytochrome P450 2C8 was “Inhibitor”. As for `CC(C)(C)NCC(O)c1ccc(O)c(CO)c1` (stereo not drawn) [ALBUTEROL], the Activity entry at Sulfotransferase 1A3 is given as “Substrate”. `CC(C)(O)c1ccccc1CC[C@@H](SCC1(CC(=O)O)CC1)c1cccc(/C=C/c2ccc3ccc(Cl)cc3n2)c1` [MONTELUKAST]: the Activity entry at Cytochrome P450 2C8 is “Inhibitor”. In the case of `NCCc1ccc(O)c(O)c1` [DOPAMINE], the Activity entry on Sulfotransferase 1A1, at Sulfotransferase 1A3 and at Sulfotransferase 1B1 was “Substrate” throughout.

In the case of `Nc1ccc2ccccc2c1` [NAPHTHYLAMINE], the Activity result at Sulfotransferase 4A1 is on record as “Substrate”. For `O=C1Nc2ccc(Cl)cc2[C@@](C#CC2CC2)(C(F)(F)F)O1` [EFAVIRENZ], at Cytochrome P450 2B6, the Activity entry was “Substrate”. For the compound `O=P1(N(CCCl)CCCl)NCCCO1` (stereo not drawn) [CYCLOPHOSPHAMIDE ANHYDROUS], on Cytochrome P450 2B6, the Activity entry is “Substrate”. `NC(Cc1ccc(Oc2ccc(O)c(I)c2)c(I)c1)C(=O)O` (stereo not drawn) [DIIODOTHYRONINE]: the Activity result at Sulfotransferase 1A1 and on Sulfotransferase 1B1 was “Substrate” each time. `Cc1ccc(C)c(OCCCC(C)(C)C(=O)O)c1` [GEMFIBROZIL]: the Activity entry at Cytochrome P450 2C8 is listed as “Inhibitor”. With `O=c1c(O)c(-c2ccc(O)c(O)c2)oc2cc(O)cc(O)c12` [QUERCETIN], the Activity result on Cytochrome P450 2C8 was “Inhibitor”.

`N[C@@H](Cc1cc(I)c(Oc2ccc(O)c(I)c2)c(I)c1)C(=O)O` [LIOTHYRONINE]: the Activity entry on Sulfotransferase 4A1, on Sulfotransferase 1A1 and on Sulfotransferase 1B1 was “Substrate” in each case.

Take `CC(CCc1ccc(O)cc1)NCCc1ccc(O)c(O)c1` (stereo not drawn) [DOBUTAMINE]: the Activity entry at Sulfotransferase 1A3 is given as “Substrate”. For `N[C@@H](Cc1ccc(Oc2cc(I)c(O)c(I)c2)c(I)c1)C(=O)O` [REVERSE TRIIODOTHYRONINE], the Activity entry at Sulfotransferase 1B1 is recorded as “Substrate”.
